Test results reported in patent publication US20080300317A1 (Chevron U.S.A. Inc., priority 2007, published 2008).
pEC50: −log10 of the molar value. Counter-ions that a name gives are not always drawn. Like-named read-outs stand apart in the source and are kept apart here.

Experiments:
influenza B/GL/1739/54 = assay: Anti-viral EC50 experiment, survival of virus-infected Vero cells; assay type: cell-based, influenza B virus
Description: The following MDT compounds were tested: MDT-1, MDT-3, MDT-10, MDT-11, MDT-12, MDT-13, MDT-14, MDT-15, MDT-16, MDT-22, MDT-23, MDT-24, MDT-26, MDT-27, MDT-28, MDT-29, MDT-30, MDT-31, MDT-32, MDT-33, MDT-34, MDT-40, MDT-41, MDT-42, MDT-43, MDT-44, MDT-45, MDT-46, MDT-47, MDT-48, MDT-49, MDT-50, MDT-51, MDT-53, MDT-56, MDT-57, MDT-58, MDT-59, MDT-60, MDT-61, MDT-62, MDT-63, MDT-65, MDT-67, MDT-68 and MDT-69. […] Amantadine and rimantadine are both adamantane derivatives.
Compound diluents were dimethyl sulfoxide (DMSO), Molecusol ((2-hydroxypropyl)-β-cyclodextrin; Sigma H107), propylene-glycol (PG) and deionized water. Diluents were used singly or in combination as necessary to dissolve the compounds.
The medium used for the cell lines was 1× Minimal Essential Medium (MEM) (Invitrogen) supplemented with 1% L-glutamine, 1% penicillin-streptomycin, 0.125% bovine serum albumin (BSA), and 1 μg/ml of TPCK-trypsin.
The viruses tested were influenza A/PR/8/34 (H1N1), influenza A/WS/33 (H1N1), influenza A/HK/8/68 (H3N2) and influenza B/GL/1739/54 (no H, N subtyping). Cells used were the Vero line of African green monkey, normal kidney cells. All viruses and cells were obtained from The American Type Culture Collection (Rockville, Md.). Cells were grown in an atmosphere of 4-6% CO2 at 34-38° C. in MEM with 5% fetal bovine serum (FBS), 2 mM glutamine, and 1% penicillin-streptomycin solution to maintain exponential growth.
The Vero cells were plated on Day 0. On Day 1, cells were infected with virus and incubated with various concentrations of test compounds. […] On Day 4 the cells were fixed and stained. […] Cell survival due to exposure to test compound was indicative of anti-viral activity.

Vero cells = conditions: Table 3, MDT compounds, No Tox. = no cytotoxicity measured
influenza A/WS/33 (H1N1) = assay: microbe, parasite or virus in culture; assay type: cell-based, influenza A virus
[1] = test system: influenza A/PR/8/34 (H1N1); assay: microbe, parasite or virus in culture; assay type: cell-based, influenza A virus
[2] = test system: influenza A/HK/8/68 (H3N2); assay: microbe, parasite or virus in culture; assay type: cell-based, influenza A virus
[3] = test system: 3 strains of influenza A virus and one strain of influenza B virus; assay type: cell-based; conditions: Vero cells; screening at 50, 10, 5 and 1 μM; all four influenza strains
[4] = Table 3, Vero cells, n at least 2, No effic. = no efficacy measured
[5] = Table 3, Vero cells, H1N1, n at least 2, No effic. = no efficacy measured, read-out: EC50 Virus A/WS/33
[6] = Table 3, Vero cells, H1N1, n at least 2, No effic. = no efficacy measured, read-out: EC50 Virus A/PR/8/34
[7] = Table 3, Vero cells, H3N2, n at least 2, No effic. = no efficacy measured
[8] = Table 3, Vero cells, H1N1, n at least 2, No effic. = no efficacy measured
[9] = Table 3, Vero cells, H3N2, n at least 2, No effic. = no efficacy measured, read-out: EC50 Virus A/HK/8/68
[10] = Influenza A virus, Table 3, Vero cells, H1N1, n at least 2, No effic. = no efficacy measured

## 2-aminotriamantane [MDT-50]
Influenza B/GL/1739/54; [4]
  pEC50: > 6.00
Vero cells
  Cytotoxicity: 10 or above μM
Influenza A/WS/33 (H1N1); [5]
  pEC50: 6.43
[1]; [6]
  pEC50: 7.70
[2]; [7]
  EC50 Virus A/HK/8/68: No Effic.

## 3-aminotriamantane [MDT-48]
[3]
  anti-viral activity under the conditions tested: did not exhibit anti-viral activity

## 9-aminotriamantane [MDT-49]
[3]
  anti-viral activity under the conditions tested: did not exhibit anti-viral activity

## NC12CC3CC(CC(C3)C1)C2 [Amantadine, 1-aminoadamantane hydrochloride, reference compound]
Influenza B/GL/1739/54; Influenza B virus, Vero, Table 4, controls, cutoff control values, determined over only 2 experiments
  pEC50: ≤ 4.70
Influenza A/WS/33 (H1N1); Influenza A virus, H1N1, Vero, Table 4, controls, cutoff control values compiled through many experiments
  pEC50: ≤ 5.00
[1]; Influenza A virus, Vero, Table 4, controls, cutoff control values compiled through many experiments
  pEC50: ≤ 4.30
[2]; Influenza A virus, H3N2, Vero, Table 4, controls, cutoff control values compiled through many experiments
  pEC50: ≥ 6.00

## NC12CC3CC4C5CC(CC41)CC2C5C3 [MDT-1, 1-aminodiamantane]
[3]
  anti-viral activity under the conditions tested: did not exhibit anti-viral activity

## NC12CC3C4CC5CC3C(C1)C(C5)C4C2 [MDT-3, 4-aminodiamantane]
Influenza B/GL/1739/54; [4]
  EC50 Virus B/GL/1739/54: No Effic.
Vero cells
  Cytotoxicity: 10 or above μM
Influenza A/WS/33 (H1N1); [8]
  EC50 Virus A/WS/33: No Effic.
[1]; [8]
  EC50 Virus A/PR/8/34: No Effic.
[2]; [9]
  pEC50: > 6.90

## OC12CC3CC4C5CC(CC41)CC2C5C3 [MDT-10, 1-hydroxydiamantane]
[3]
  anti-viral activity under the conditions tested: did not exhibit anti-viral activity

## OC12CC3C4CC5CC3C(C1)C(C5)C4C2 [MDT-11, 4-hydroxydiamantane]
[3]
  anti-viral activity under the conditions tested: did not exhibit anti-viral activity

## OC12CC3CC4C1CC1CC2C(C3)C4(O)C1 [MDT-12, 1,6-dihydroxydiamantane]
[3]
  anti-viral activity under the conditions tested: did not exhibit anti-viral activity

## OC12CC3CC4C1CC1CC4C(O)(C3)C2C1 [MDT-13, 1,7-dihydroxydiamantane]
[3]
  anti-viral activity under the conditions tested: did not exhibit anti-viral activity

## OC12CC3C4CC5(O)CC3C(C1)C(C5)C4C2 [MDT-14, 4,9-dihydroxydiamantane]
[3]
  anti-viral activity under the conditions tested: did not exhibit anti-viral activity

## OC12CC3C4CC5C6CC7(O)CC5C(C4C1)C(C2)(C7)C36 [MDT-15, 9,15-dihydroxytriamantane]
[3]
  anti-viral activity under the conditions tested: did not exhibit anti-viral activity

## CC12CC3(N)CC4C5CC(CC41)CC2C5C3 [MDT-22, 2-methyl-4-aminodiamantane]
[3]
  anti-viral activity under the conditions tested: did not exhibit anti-viral activity

## CC12CC3CC4C1CC1(N)CC2C(C3)C4(C)C1 [MDT-23, 1,6-dimethyl-4-aminodiamantane]
[3]
  anti-viral activity under the conditions tested: did not exhibit anti-viral activity

## CC12CC3CC4C5CC(N)(CC41)CC2C5C3 [MDT-24, 1-methyl-4-aminodiamantane]
Influenza B/GL/1739/54; [4]
  EC50 Virus B/GL/1739/54: No Effic.
Vero cells
  Cytotoxicity: No Tox.
Influenza A/WS/33 (H1N1); [8]
  EC50 Virus A/WS/33: No Effic.
[1]; [8]
  EC50 Virus A/PR/8/34: No Effic.
[2]; [9]
  pEC50: 7.15

## O=NC12CC3CC4C5CC(CC41)CC2C5C3 [MDT-26, 1-nitrosodiamantane]
Influenza B/GL/1739/54; [4]
  EC50 Virus B/GL/1739/54: No Effic.
Vero cells
  Cytotoxicity: No Tox.
Influenza A/WS/33 (H1N1); [5]
  pEC50: 6.10
[1]; [6]
  pEC50: 6.85
[2]; [7]
  EC50 Virus A/HK/8/68: No Effic.

## O=NC12CC3C4CC5CC3C(C1)C(C5)C4C2 [MDT-27, 4-nitrosodiamantane]
Influenza B/GL/1739/54; [4]
  EC50 Virus B/GL/1739/54: No Effic.
Vero cells
  Cytotoxicity: No Tox.
Influenza A/WS/33 (H1N1); [5]
  pEC50: 6.44
[1]; [6]
  pEC50: 7.70
[2]; [7]
  EC50 Virus A/HK/8/68: No Effic.

## CC12CC3(N)CC4C5CC(N)(CC41)CC2C5C3 [MDT-28, 1-methyl-4,9-diaminodiamantane]
[3]
  anti-viral activity under the conditions tested: did not exhibit anti-viral activity

## CC12CC3CC4C1CC1(N)CC2C(C3)C4(N)C1 [MDT-29, 1-methyl-4,6-diaminodiamantane]
[3]
  anti-viral activity under the conditions tested: did not exhibit anti-viral activity

## CC12CC3CC4C5CC(CC41)CC2(N)C5C3 (stereo not shown) [MDT-30, 1-amino-12-methyldiamantane]
[3]
  anti-viral activity under the conditions tested: did not exhibit anti-viral activity

## CC12CC3CC4C1CC1(N)CC2C(C3)C4(C)C1 [MDT-33, 1,6-dimethyl-4-aminodiamantane]
[3]
  anti-viral activity under the conditions tested: did not exhibit anti-viral activity

## OC12C3CC4CC5C3CC3C6CC(CC31)CC2(C4)C56 [MDT-40, 2-hydroxytriamantane]
Influenza B/GL/1739/54; [4]
  EC50 Virus B/GL/1739/54: No Effic.
Vero cells
  Cytotoxicity: No Tox.
Influenza A/WS/33 (H1N1); [5]
  pEC50: 4.60
[1]; [6]
  pEC50: 5.72
[2]; [7]
  EC50 Virus A/HK/8/68: No Effic.

## OC12CC3CC4C1CC1C5CC6CC1C2C(C6)(C3)C54 (stereo not shown) [MDT-41, 3-hydroxytriamantane]
Influenza B/GL/1739/54; [4]
  EC50 Virus B/GL/1739/54: No Effic.
Vero cells
  Cytotoxicity: No Tox.
Influenza A/WS/33 (H1N1); [10]
  pEC50: 5.26
[1]; [10]
  pEC50: 6.21
[2]; [7]
  EC50 Virus A/HK/8/68: No Effic.

## OC12CC3C4CC5C6CC7CC5C(C4C1)C(C7)(C2)C63 [MDT-42, 9-hydroxytriamantane]
Influenza B/GL/1739/54; [4]
  EC50 Virus B/GL/1739/54: No Effic.
Vero cells
  Cytotoxicity: No Tox.
Influenza A/WS/33 (H1N1); [10]
  pEC50: 5.60
[1]; [10]
  pEC50: 7.10
[2]; [7]
  EC50 Virus A/HK/8/68: No Effic.

## CC12CC3CC4C1CC1CC2C(N)(C3)C4(C)C1 (stereo not shown) [MDT-43, 1,6-dimethyl-2-aminodiamantane]
Influenza B/GL/1739/54; [4]
  EC50 Virus B/GL/1739/54: No Effic.
Vero cells
  Cytotoxicity: 10 or above μM
Influenza A/WS/33 (H1N1); [5]
  pEC50: 6.09
[1]; [6]
  pEC50: 7.22
[2]; [7]
  EC50 Virus A/HK/8/68: No Effic.

## CC12CC3CC4C1CC1CC2C(O)(C3)C4(C)C1 (stereo not shown) [MDT-44, 1,6-dimethyl-2-hydroxydiamantane]
Influenza B/GL/1739/54; [4]
  EC50 Virus B/GL/1739/54: No Effic.
Vero cells
  Cytotoxicity: No Tox.
Influenza A/WS/33 (H1N1); [5]
  pEC50: 6.21
[1]; [6]
  pEC50: 7.30
[2]; [7]
  EC50 Virus A/HK/8/68: No Effic.

## CC12CC3CC4C1CC1(O)CC2C(C3)C4(C)C1 [MDT-45, 1,6-dimethyl-4-hydroxydiamantane]
Influenza B/GL/1739/54; [4]
  EC50 Virus B/GL/1739/54: No Effic.
Vero cells
  Cytotoxicity: No Tox.
Influenza A/WS/33 (H1N1); [5]
  pEC50: 6.52
[1]; [6]
  pEC50: 7.70
[2]; [7]
  EC50 Virus A/HK/8/68: No Effic.

## CC12CC3CC4C1CC1(C(=O)O)CC2C(C3)C4(C)C1 [MDT-46, 1,6-dimethyl-4-diamantanecarboxylic acid]
Influenza B/GL/1739/54; [4]
  EC50 Virus B/GL/1739/54: No Effic.
Vero cells
  Cytotoxicity: No Tox.
Influenza A/WS/33 (H1N1); [5]
  pEC50: > 6.90
[1]; [6]
  pEC50: > 6.90
[2]; [7]
  EC50 Virus A/HK/8/68: No Effic.

## CC12CC3C4CC5(C)CC3C(C1)C(N)(C5)C4C2 [MDT-51, 4,9-dimethyl-1-aminodiamantane]
[3]
  anti-viral activity under the conditions tested: did not exhibit anti-viral activity

## CC12CC3C4CC5(C)CC(C(C1)C3(N)C5)C4(N)C2 [MDT-53, 4,9-dimethyl-1,6-diaminodiamantane]
[3]
  anti-viral activity under the conditions tested: did not exhibit anti-viral activity

## NCC12CC3CC4C5CC(CC41)CC2C5C3 [MDT-56, 1-diamantanemethylamine]
[3]
  anti-viral activity under the conditions tested: did not exhibit anti-viral activity

## O=C1C2CC3C4CC5CC3C1C(C5)C4C2 [MDT-59, 3-diamantanone]
[3]
  anti-viral activity under the conditions tested: did not exhibit anti-viral activity

## CC12CC3C4CC5CC3C(C1)C(C5)C4C2 [MDT-60, 4-methyldiamantane]
[3]
  anti-viral activity under the conditions tested: did not exhibit anti-viral activity

## CC12CC3C4CC5(C)CC3C(C1)C(CN)(C5)C4C2 [MDT-63, 4,9-dimethyl-1-diamantanemethyleneamine]
[3]
  anti-viral activity under the conditions tested: did not exhibit anti-viral activity

## CC12CC3CC4C1CC1(CN)CC2C(C3)C4(C)C1 [MDT-65, 1,6-dimethyl-4-diamantanemethyleneamine]
[3]
  anti-viral activity under the conditions tested: did not exhibit anti-viral activity

## CC(N)C12CC3(C)CC4C5CC(C)(CC41)CC2C5C3 (stereo not shown) [MDT-67, 4,9-dimethyl-1-diamantane-1′-methyl-methyleneamine]
[3]
  anti-viral activity under the conditions tested: did not exhibit anti-viral activity

## CC(N)C12CC3C4CC5CC(C(C1)C3(C)C5)C4(C)C2 (stereo not shown) [MDT-68, 1,6-dimethyl-4-diamantane-4′-methyl-methyleneamine]
[3]
  anti-viral activity under the conditions tested: did not exhibit anti-viral activity
